# Results reported in PMC4286194 (Biochemical Journal, 2015).
# Tests used:
# Assay in all cases: Kinase profiling
# Assay type in all cases: biochemical
# [1] = target: PKC gamma (Homo sapiens, UniProt P05129)
# [2] = target: p38 beta MAPK (Homo sapiens, UniProt Q15759)
# [3] = target: MPSK1 (Homo sapiens, UniProt O75716)
# [4] = target: T1, TBK1 (Homo sapiens, UniProt Q9UHD2)
# T1 sequence (Q9UHD2 1-729): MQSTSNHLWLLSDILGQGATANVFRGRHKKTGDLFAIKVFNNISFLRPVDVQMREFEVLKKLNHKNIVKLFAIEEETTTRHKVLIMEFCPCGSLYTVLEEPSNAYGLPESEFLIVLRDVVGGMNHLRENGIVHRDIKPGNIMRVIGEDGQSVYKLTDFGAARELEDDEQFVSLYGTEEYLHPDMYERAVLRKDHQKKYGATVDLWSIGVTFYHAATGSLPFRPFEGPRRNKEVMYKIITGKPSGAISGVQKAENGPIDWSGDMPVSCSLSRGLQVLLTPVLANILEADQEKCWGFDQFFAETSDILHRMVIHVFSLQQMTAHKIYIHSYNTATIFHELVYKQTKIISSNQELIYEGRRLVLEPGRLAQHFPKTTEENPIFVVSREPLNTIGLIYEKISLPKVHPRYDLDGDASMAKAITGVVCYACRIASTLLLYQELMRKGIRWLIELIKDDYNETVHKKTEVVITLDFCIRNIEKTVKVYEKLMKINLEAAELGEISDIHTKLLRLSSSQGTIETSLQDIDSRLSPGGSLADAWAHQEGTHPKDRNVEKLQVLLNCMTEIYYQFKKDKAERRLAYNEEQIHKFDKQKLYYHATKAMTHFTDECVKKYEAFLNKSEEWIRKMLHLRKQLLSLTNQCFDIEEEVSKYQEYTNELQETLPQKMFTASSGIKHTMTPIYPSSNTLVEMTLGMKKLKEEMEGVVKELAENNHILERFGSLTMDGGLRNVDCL
# [5] = target: T2, GCK (Homo sapiens, UniProt Q12851)
# T2 sequence (Q12851 1-820): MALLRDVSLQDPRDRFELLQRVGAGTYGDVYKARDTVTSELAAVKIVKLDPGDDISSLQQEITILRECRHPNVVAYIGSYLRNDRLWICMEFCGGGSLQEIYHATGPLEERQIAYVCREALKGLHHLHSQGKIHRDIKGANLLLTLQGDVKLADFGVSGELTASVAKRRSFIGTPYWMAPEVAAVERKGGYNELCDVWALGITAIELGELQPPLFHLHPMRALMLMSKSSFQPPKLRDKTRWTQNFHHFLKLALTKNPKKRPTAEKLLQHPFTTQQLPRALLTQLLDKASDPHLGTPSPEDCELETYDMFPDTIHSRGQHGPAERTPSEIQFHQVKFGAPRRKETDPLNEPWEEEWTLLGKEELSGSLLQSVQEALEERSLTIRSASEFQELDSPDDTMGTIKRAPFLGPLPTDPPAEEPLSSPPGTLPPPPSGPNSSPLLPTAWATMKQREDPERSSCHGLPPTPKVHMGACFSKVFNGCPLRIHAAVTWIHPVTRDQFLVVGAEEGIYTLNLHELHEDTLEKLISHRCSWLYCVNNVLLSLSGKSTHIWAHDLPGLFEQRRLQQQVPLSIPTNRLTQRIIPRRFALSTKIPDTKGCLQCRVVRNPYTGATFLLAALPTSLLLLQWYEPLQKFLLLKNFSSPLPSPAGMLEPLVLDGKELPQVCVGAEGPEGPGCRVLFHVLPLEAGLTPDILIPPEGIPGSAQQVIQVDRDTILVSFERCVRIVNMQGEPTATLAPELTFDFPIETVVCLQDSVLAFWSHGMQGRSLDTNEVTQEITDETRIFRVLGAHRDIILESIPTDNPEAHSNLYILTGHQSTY
# [6] = target: T3, ULK2 (Homo sapiens, UniProt Q8IYT8)
# T3 sequence (Q8IYT8 1-1036): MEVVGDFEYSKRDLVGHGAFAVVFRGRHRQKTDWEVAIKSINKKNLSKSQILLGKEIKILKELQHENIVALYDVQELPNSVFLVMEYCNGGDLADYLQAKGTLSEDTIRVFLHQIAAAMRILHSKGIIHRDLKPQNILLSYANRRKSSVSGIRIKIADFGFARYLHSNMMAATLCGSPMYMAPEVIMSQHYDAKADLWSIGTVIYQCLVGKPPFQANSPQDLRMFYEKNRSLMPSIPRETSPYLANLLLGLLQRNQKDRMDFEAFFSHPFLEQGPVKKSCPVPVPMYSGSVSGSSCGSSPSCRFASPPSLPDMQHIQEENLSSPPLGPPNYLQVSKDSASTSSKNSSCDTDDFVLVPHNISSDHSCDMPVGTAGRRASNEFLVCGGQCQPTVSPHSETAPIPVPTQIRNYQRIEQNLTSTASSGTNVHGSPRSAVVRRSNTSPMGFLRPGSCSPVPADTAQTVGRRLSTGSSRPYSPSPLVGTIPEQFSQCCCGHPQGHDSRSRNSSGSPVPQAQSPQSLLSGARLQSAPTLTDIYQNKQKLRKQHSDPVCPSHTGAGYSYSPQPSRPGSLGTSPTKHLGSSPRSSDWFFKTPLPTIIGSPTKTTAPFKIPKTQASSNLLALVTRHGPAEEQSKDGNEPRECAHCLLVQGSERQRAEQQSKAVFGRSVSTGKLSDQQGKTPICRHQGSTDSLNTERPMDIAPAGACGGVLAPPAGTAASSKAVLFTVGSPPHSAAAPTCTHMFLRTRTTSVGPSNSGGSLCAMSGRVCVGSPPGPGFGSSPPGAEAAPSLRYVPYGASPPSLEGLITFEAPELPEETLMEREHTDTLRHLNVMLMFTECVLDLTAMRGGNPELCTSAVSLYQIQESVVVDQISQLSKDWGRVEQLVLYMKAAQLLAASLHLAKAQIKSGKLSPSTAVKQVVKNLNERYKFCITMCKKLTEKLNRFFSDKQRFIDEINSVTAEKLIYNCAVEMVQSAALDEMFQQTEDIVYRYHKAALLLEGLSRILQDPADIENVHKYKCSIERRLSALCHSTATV
# MPSK1, sequence (O75716 whole entry): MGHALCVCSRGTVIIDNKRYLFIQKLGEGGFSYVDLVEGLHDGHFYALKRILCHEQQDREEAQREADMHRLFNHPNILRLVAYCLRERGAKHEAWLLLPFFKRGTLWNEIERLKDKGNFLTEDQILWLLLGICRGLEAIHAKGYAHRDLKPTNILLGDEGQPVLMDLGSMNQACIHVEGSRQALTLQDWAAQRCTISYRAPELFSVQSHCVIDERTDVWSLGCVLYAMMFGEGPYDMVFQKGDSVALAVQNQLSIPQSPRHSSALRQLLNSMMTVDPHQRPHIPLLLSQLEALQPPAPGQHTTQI
# p38 beta MAPK, sequence (Q15759 whole entry): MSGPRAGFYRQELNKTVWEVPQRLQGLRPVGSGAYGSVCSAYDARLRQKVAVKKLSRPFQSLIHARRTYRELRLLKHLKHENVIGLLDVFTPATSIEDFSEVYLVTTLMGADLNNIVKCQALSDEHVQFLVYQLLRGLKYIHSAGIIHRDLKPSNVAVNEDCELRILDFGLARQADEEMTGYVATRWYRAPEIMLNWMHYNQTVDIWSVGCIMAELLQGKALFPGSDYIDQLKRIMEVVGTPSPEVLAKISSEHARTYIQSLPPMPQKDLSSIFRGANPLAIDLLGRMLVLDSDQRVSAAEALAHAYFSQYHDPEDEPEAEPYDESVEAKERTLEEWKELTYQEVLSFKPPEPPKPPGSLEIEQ
SMILES,remaining activity at 0.1 µM [1],remaining activity at 1 µM [1],remaining activity at 0.1 µM [2],remaining activity at 1 µM [2],remaining activity at 0.1 µM [3],remaining activity at 1 µM [3],remaining activity at 0.1 µM [4],remaining activity at 1 µM [4],remaining activity at 0.1 µM [5],remaining activity at 1 µM [5],remaining activity at 0.1 µM [6],remaining activity at 1 µM [6]
Cc1nc(Nc2ncc(C(=O)Nc3c(C)cccc3Cl)s2)cc(N2CCN(CCO)CC2)n1 [Dasatinib],107 ± 22%,114 ± 22%,105 ± 11%,44 ± 4%,101 ± 5%,123 ± 1%,100 ± 1%,97 ± 10%,95 ± 7%,56 ± 8%,101 ± 3%,91 ± 3%
"COc1cc(Nc2c(C#N)cnc3cc(OCCCN4CCN(C)CC4)c(OC)cc23)c(Cl)cc1Cl [Bosutinib, bosutinib]",88 ± 6%,102 ± 5%,94 ± 15%,108 ± 24%,117 ± 15%,110 ± 11%,75 ± 1%,29 ± 1%,9 ± 2%,4%,78 ± 10%,37 ± 1%
